Measured values published in patent US7473711B2, “Androgen modulators” (Pfizer Inc., priority 2004, dated 2009).
Read-outs that look alike come from different tables or passages of the source.

Legend:
sebum production = experiment: Animal model for inhibition of sebum production (hamster ear, HPLC of sebum lipids); type: in vivo, male Syrian hamsters; details: 4 weeks; for Sum CE + WE: sum of CE and WE reductions; for % Reduction in CE / % Reduction in WE: five days a week; for % Reduction in CE: cholesterol ester vs vehicle control; for % Reduction in WE: wax ester vs vehicle control
Experimental: Animal Model for Inhibition of Sebum Production
Luderschmidt et al describes an animal model for testing whether compounds are capable of modulating sebum secretion. Arch. Derm. Res. 258, 185-191 (1977). This model uses male Syrian hamsters, whose ears contain sebaceous glands. The products of Examples 24, 27 and 28 were screened in this model.
Testing for sebum inhibition was carried out in the following manner. Male Syrian hamsters aged 9 to 10 weeks were introduced into the laboratory environment and acclimated for 2 weeks prior to use in the study. Each group consisted of 5 animals and run in parallel with vehicle and positive controls. Prior to administration, a sufficient quantity each compound was dissolved in 1 mL of a solvent consisting of transcutanol, ethanol, and propylene glycol (20/60/20% v/v) to achieve a final concentration of 0.5 w/v % or 3.0 w/v %.
Animals were dosed topically twice daily, five days a week, for 4 weeks. Each dose consisted of 25 micro liters of vehicle control or drug. The dose was applied to the ventral surfaces of both the right and left ears. All animals were sacrificed approximately 18-24 hours after the final dose. The right ears were collected from each animal and used for sebum analysis.
The ears were prepped for HPLC analysis in the following manner. One 8 mm distal biopsy punch was taken, just above the anatomical “V” mark in the ear to normalize the sample area. The punch was pulled apart. The ventral biopsy surface (the area where the topical dose was directly applied to the sebaceous glands) was retained for testing and the dorsal surface of the biopsy punch was discarded.
Tissue samples were blown with N2 gas and stored at −80° C. under nitrogen until HPLC analysis. In addition to ear samples, an aliquot of each drug and vehicle (at least 250 ul) was also stored at −80° C. for inclusion in the HPLC analysis.
HPLC analysis was carried out on an extract of the tissue sample. Tissue samples were contacted with 3 ml of solvent (a 4:1 admixture of 2,2,4-trimethylpentane and isopropyl alcohol). The mixture was shaken for 15 minutes and stored overnight at room temperature, protected from light. The next morning 1 milliliter of water was added to the sample and shaken for 15 minutes. The sample was then centrifuged at approximately 1500 rpm for 15 minutes. Two ml of the organic phase (top layer) was transferred to a glass vial, dried at 37° C., under nitrogen, for approximately 1 hour, and then lyophilized for approximately 48 hours. The samples were then removed from the lyophilizer and each vial was reconstituted with 600 μl of solvent A (trimethylpentane/tetrahydrofuran (99:1). The samples were then recapped and vortexed for 5 minutes.
200 μl of each sample was then transferred to a pre-labeled 200 μl HPLC vial with 200 μL glass inserts. The HPLC vials were placed in the autosampler tray for the Agilent 1100 series HPLC unit. The Agilent 1100 HPLC system consisted of a thermostated autosampler, a quarternary pump, a column heater, and an A/D interface module. All components were controlled by Agilent ChemStation software. A Waters Spherisorb S3W 4.6×100 mm analytical column was maintained at 30° C. by the Agilent column heater unit. The HPLC autosampler was programmed to maintain the sample temperature at 20 C throughout the run.
10 uL of each sample was injected in triplicate into the column. Two solvents were used for the solvent gradient. Solvent A was an admixture of trimethylpentane and tetrahydrofuran (99:1). Solvent B was ethylacetate. The gradient utilized is described in the table below: […]
The Sedex 75 Evaporative Light Scattering Detector (ELSD) was operated at 45° C. with a gain of 5, and N2 pressure maintained at 3.1 bar. Analog signal obtained by the instrument was sent to the Agilent A/D interface module where it was converted to a digital output. The conversion was based on a 10000 mAU/volt set point and the data rate was set at 10 Hz (0.03 min). […]

[1] = target: T1, hAR (human androgen receptor) (Homo sapiens, UniProt P10275); experiment: Competitive binding analysis on hAR extracts with 3H-DHT tracer
T1 construct: made in house; host or cells: baculovirus/Sf9 insect cells (extract)
T1 sequence (P10275 1-920): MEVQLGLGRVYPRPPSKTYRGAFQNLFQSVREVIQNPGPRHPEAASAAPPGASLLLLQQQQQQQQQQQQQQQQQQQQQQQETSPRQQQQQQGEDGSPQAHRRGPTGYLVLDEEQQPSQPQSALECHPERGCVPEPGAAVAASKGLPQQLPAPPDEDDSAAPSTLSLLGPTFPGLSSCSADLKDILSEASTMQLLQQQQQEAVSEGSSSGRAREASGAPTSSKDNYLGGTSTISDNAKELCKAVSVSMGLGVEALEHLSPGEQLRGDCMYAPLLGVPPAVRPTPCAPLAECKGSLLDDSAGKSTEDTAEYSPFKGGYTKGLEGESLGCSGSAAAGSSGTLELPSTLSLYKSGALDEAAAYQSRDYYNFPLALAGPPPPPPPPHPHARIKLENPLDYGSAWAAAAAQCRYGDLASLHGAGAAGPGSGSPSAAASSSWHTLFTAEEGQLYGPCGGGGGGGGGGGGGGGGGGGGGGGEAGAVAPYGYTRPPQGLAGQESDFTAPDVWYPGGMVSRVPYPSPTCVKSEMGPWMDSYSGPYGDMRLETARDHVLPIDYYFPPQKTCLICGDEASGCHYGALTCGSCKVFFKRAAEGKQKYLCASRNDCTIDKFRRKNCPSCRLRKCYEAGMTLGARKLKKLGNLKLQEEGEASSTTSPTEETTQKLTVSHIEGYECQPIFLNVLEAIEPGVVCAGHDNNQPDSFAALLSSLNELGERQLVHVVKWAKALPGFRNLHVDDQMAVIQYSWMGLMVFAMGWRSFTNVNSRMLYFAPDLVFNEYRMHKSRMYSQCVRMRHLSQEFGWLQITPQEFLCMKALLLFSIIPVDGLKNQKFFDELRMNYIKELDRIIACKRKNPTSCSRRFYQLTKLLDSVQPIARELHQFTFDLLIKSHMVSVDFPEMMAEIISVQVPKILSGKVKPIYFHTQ
Experimental: The compounds of Formula I have affinity for the androgen receptor. […] The description below describes how the assay was carried out.
Competitive binding analysis was performed on baculovirus/Sf9 generated hAR extracts in the presence or absence of different concentrations of test agent and a fixed concentration of ^3H-dihydrotestosterone (^3H-DHT) as tracer. This binding assay method is a modification of a protocol previously described (Liao S., et. al. J. Steroid Biochem. 20:11-17 1984). Briefly, progressively decreasing concentrations of compounds are incubated in the presence of hAR extract (Chang et al. P.N.A.S. Vol. 89, pp. […], 1992), hydroxylapatite, and 1 nM ^3H-DHT for one hour at 4° C. Subsequently, the binding reactions are washed three times to completely remove excess unbound ^3H-DHT. hAR bound ^3H-DHT levels are determined in the presence of compounds (i.e. competitive binding) and compared to levels bound when no competitor is present (i.e. maximum binding). Compound binding affinity to the hAR is expressed as the concentration of compound at which one half of the maximum binding is inhibited. Table II below provides the results that were obtained for selected compounds (reported data is the mean of multiple tests as shown below)

[2] = 0.5 w/v % topical twice daily, negative = increase in sebum

SMILES | Sum CE + WE (sebum production; 0.5 w/v % topical twice daily) | % Reduction in CE (sebum production; [2]) | % Reduction in WE (sebum production; [2]) | IC50 ([1]; baculovirus/Sf9 hAR extract, 1 nM 3H-DHT, one hour at 4° C, mean of multiple tests, read-out: AR Binding IC50) | Sum CE + WE (sebum production; 3 w/v % topical twice daily) | % Reduction in CE (sebum production; 3 w/v % topical twice daily) | % Reduction in WE (sebum production; 3 w/v % topical twice daily) | IC50 [1]
N#Cc1ccc(OCCCCCOc2ccc(C#N)c(C(F)(F)F)c2)cc1C(F)(F)F [Example 24] | −74 | −33% | −41% | 128 nM | – | – | – | –
N#Cc1ccc(OC(CO)COc2ccccc2)cc1C(F)(F)F (stereo not drawn) [Example 28, 4-(1-Hydroxymethyl-2-phenoxy-ethoxy)-2-trifluoromethyl-benzonitrile] | – | – | – | – | 40 | 11% | 19% | 81 nM
COCC(COc1ccccc1)Oc1ccc(C#N)c(C(F)(F)F)c1 (stereo not drawn) [Example 27, 4-(1-Methoxymethyl-2-phenoxy-ethoxy)-2-trifluoromethyl-benzonitrile] | – | – | – | – | 147 | 63% | 84% | 5 nM
